Laboratory results from BigSolDB 2.1.

Compound: O=C(N[C@H](C(=O)O)c1ccccc1)OCc1ccccc1
- solubility (mole fraction) (in 2-butanone, 283.15 K): 0.0446
- solubility (mole fraction) (in 2-butanone, 293.15 K): 0.0596
- solubility (mole fraction) (in 2-butanone, 303.15 K): 0.0762
- solubility (mole fraction) (in 2-butanone, 313.15 K): 0.0957
- solubility (mole fraction) (in 2-butanone, 323.15 K): 0.111
- solubility (mole fraction) (in acetone, 283.15 K): 0.0605
- solubility (mole fraction) (in acetone, 293.15 K): 0.0786
- solubility (mole fraction) (in acetone, 303.15 K): 0.1
- solubility (mole fraction) (in acetone, 313.15 K): 0.129
- solubility (mole fraction) (in acetone, 323.15 K): 0.159
- solubility (mole fraction) (in acetonitrile, 283.15 K): 0.0067
- solubility (mole fraction) (in acetonitrile, 293.15 K): 0.00966
- solubility (mole fraction) (in acetonitrile, 303.15 K): 0.0143
- solubility (mole fraction) (in acetonitrile, 313.15 K): 0.0253
- solubility (mole fraction) (in acetonitrile, 323.15 K): 0.053
- solubility (mole fraction) (in dichloromethane, 283.15 K): 0.00624
- solubility (mole fraction) (in dichloromethane, 288.15 K): 0.00703
- solubility (mole fraction) (in dichloromethane, 293.15 K): 0.00874
- solubility (mole fraction) (in dichloromethane, 298.15 K): 0.0112
- solubility (mole fraction) (in dichloromethane, 303.15 K): 0.0149
- solubility (mole fraction) (in ethanol, 283.15 K): 0.0235
- solubility (mole fraction) (in ethanol, 293.15 K): 0.0354
- solubility (mole fraction) (in ethanol, 303.15 K): 0.0581
- solubility (mole fraction) (in ethanol, 313.15 K): 0.0922
- solubility (mole fraction) (in ethanol, 323.15 K): 0.141
- solubility (mole fraction) (in ethyl acetate, 283.15 K): 0.0209
- solubility (mole fraction) (in ethyl acetate, 293.15 K): 0.0274
- solubility (mole fraction) (in ethyl acetate, 303.15 K): 0.0371
- solubility (mole fraction) (in ethyl acetate, 313.15 K): 0.0549
- solubility (mole fraction) (in ethyl acetate, 323.15 K): 0.073
- solubility (mole fraction) (in isopropanol, 283.15 K): 0.0107
- solubility (mole fraction) (in isopropanol, 293.15 K): 0.0175
- solubility (mole fraction) (in isopropanol, 303.15 K): 0.0328
- solubility (mole fraction) (in isopropanol, 313.15 K): 0.0604
- solubility (mole fraction) (in isopropanol, 323.15 K): 0.105
- solubility (mole fraction) (in methanol, 283.15 K): 0.0325
- solubility (mole fraction) (in methanol, 293.15 K): 0.0479
- solubility (mole fraction) (in methanol, 303.15 K): 0.0794
- solubility (mole fraction) (in methanol, 313.15 K): 0.111
- solubility (mole fraction) (in methanol, 323.15 K): 0.146
- solubility (mole fraction) (in methyl acetate, 283.15 K): 0.028
- solubility (mole fraction) (in methyl acetate, 293.15 K): 0.0399
- solubility (mole fraction) (in methyl acetate, 303.15 K): 0.0541
- solubility (mole fraction) (in methyl acetate, 313.15 K): 0.0739
- solubility (mole fraction) (in methyl acetate, 323.15 K): 0.0918
- solubility (mole fraction) (in n-propanol, 283.15 K): 0.0141
- solubility (mole fraction) (in n-propanol, 293.15 K): 0.0231
- solubility (mole fraction) (in n-propanol, 303.15 K): 0.039
- solubility (mole fraction) (in n-propanol, 313.15 K): 0.068
- solubility (mole fraction) (in n-propanol, 323.15 K): 0.11
- solubility (mole fraction) (in water, 283.15 K): 1.1e-05
- solubility (mole fraction) (in water, 293.15 K): 2.4e-05
- solubility (mole fraction) (in water, 303.15 K): 4.5e-05
- solubility (mole fraction) (in water, 313.15 K): 5.7e-05
- solubility (mole fraction) (in water, 323.15 K): 6.9e-05
